Test results taken from patent US6929012B2, “Process for the isolation of a major harmful oxidant from cigarette smoke” (Council of Scientific and Industrial Research, priority 2001, dated 2005).

Tested on: cs-oxidant-induced albumin oxidation
Assay: Protection of cs-oxidant-induced albumin oxidation by chemical agents
Type: biochemical, bovine
Conditions: for inhibition of BSA oxidation: concentration ranging between 500 μM and 1 mM
Experimental: The incubation system contained 1 mg BSA and 50 μl of cs solution or its equivalent amounts obtained at different stages of purification in a final volume of 200 μl of 50 mM potassium phosphate buffer, pH 7.4. The incubation was carried out at 37° C. for 1 hour. Protein carbonyl was measured by reaction with 2,4-dinitrophenyl hydrazine (DNPH) following the method of Levine et al (Methods Enzymol. 186: 464-478, 1990) similar to that done before in our laboratory (Panda et al., Free Radic. Biol. & Med. 27: 1064-1079, 1999). […] To this washed pellet was then added 500 μl of 10 mM DNPH solution in 2M HCl and incubated at 37° C. for 1 h with occasional vortexing. Thereafter, the protein was again precipitated with 500 μl of cold 20% trichloroacetic acid solution and the pellet was first washed with 500 μl of 10% trichloroacetic acid solution followed by three successive washes with 1 ml of a mixture of ethanol: ethyl acetate (1:1, v/v). Finally, the washed precipitate was dissolved in 1 ml of 6M guanidium hydrochloride (pH 2.3) and the absorbance was measured at 390 nm using a double beam Hitachi spectrophotometer model U 3020 against a reagent blank of 2M HCl. The results were expressed as n moles of phenylhydrazones formed per milligram protein using a molar extinction coefficient of 22,000.
The chemical compounds/agents include, besides ascorbic acid, tartaric acid, citric acid, oxalic cid, glutathione, tea extract and individual components of tea (Table. 4).
The incubation system and carbonyl estimation are described in the text.

Compound: O=C1O[C@H]([C@@H](O)CO)C(O)=C1O [Ascorbic acid]
- % Protection (agent 100 μM): 76%
- % Protection (agent 100 μM, listed as ascorbic acid): up to 76%

Compound: O=C(O)CC(O)(CC(=O)O)C(=O)O [Citric acid]
- % Protection (agent 500 μM): 67%
- % Protection (agent 1 mM): 75%
- inhibition of BSA oxidation: up to 75%

Compound: Oc1cc(O)c2c(c1)O[C@H](c1cc(O)c(O)c(O)c1)[C@H](O)C2 [Epigallocatechin]
- % Protection (agent 140 μg): 95%
- % Protection (agent 140 μg, listed as epigallocatechin): up to 95%

Compound: N[C@@H](CCC(=O)N[C@@H](CS)C(=O)NCC(=O)O)C(=O)O [Glutathione]
- % Protection (agent 1 mM): 37%
- % Protection (agent 1 mM, listed as glutanthione): up to 37%

Compound: N[C@@H](Cc1c[nH]cn1)C(=O)O [Histidine]
- % Protection (agent 1 mM): 67%
- % Protection (agent 1 mM, listed as histidine): up to 67%

Compound: NCCCC[C@H](N)C(=O)O [Lysine]
- % Protection (agent 1 mM): 35%
- % Protection (agent 1 mM, listed as lysine): up to 35%

Compound: O=C(O)C(=O)O [Oxalic acid]
- % Protection (agent 500 μM): 53%
- % Protection (agent 500 μM, listed as oxalic acid): up to 53%

Compound: O=C(O)CCC(=O)O [Succinic acid]
- % Protection (agent 1 μM (so in the source)): 60%
- % Protection (agent 1 mM): 60%
- % Protection (agent 1 mM, listed as succinic acid): up to 60%

Compound: O=C(O)C(O)C(O)C(=O)O (centres unmarked) [Tartaric acid]
- % Protection (agent 500 μM): 67%
- % Protection (agent 1 mM): 75%
- inhibition of BSA oxidation: up to 75%

Compound: Catechin
- % Protection (agent 750 μg): 54%
- % Protection (agent 750 μg, listed as catechin): up to 54%
